Patent publication US7135299B2, “Catalase-inactivating compounds and the use thereof” (priority 2001, dated 2006)

Key:
[1] = biological target: T1, catalase from ox liver (as active endogenous catalase) (Bos taurus, UniProt P00432); experiment: Catalase inactivation test: oxygen evolution from hydrogen peroxide measured as pressure in a closed tube, active endogenous catalase; type: biochemical; details: 35 units of catalase from ox liver in 1 ml sample, 7 ml solution of the title compound, 0.23 g hydrogen peroxide 30%, 15 minutes at room temperature
T1 construct: catalase from ox liver (as active endogenous catalase); from tissue; host or cells: ox liver
T1 sequence (P00432 2-527 limits assumed): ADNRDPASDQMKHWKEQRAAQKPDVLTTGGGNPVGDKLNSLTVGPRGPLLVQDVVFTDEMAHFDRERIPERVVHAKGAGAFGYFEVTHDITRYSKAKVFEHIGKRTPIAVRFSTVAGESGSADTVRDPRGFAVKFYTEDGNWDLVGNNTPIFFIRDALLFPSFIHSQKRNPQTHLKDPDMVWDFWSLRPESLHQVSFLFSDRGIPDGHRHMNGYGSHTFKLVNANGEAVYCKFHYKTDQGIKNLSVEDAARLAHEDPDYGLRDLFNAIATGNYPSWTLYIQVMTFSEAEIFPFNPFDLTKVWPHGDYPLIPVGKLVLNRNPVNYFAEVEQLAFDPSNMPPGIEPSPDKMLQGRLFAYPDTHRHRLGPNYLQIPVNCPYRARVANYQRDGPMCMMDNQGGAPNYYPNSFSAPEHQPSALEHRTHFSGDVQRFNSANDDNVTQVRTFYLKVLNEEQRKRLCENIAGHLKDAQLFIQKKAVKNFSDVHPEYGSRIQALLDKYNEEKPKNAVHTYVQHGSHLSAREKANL
Text: (§1) The following reagents are provided: • catalase from ox liver (as active endogenous catalase) • catalase from Aspergillus niger (as active intracellular catalase) • catalase from microorganisms^(*) (as active intracellular catalase) • antifoam (RD® from Dow Corning) • hydrogen peroxide (Perhydrol® 30% from Merck) ^(*)various bacteria and/or fungi
(§2) Each sample contains in each case 35 units of catalase from ox liver or from Aspergillus niger or from microorganisms per ml of distilled water. The 1 ml sample is put in a 15 ml tube (Vacutainer® 16×125 mm from Becton Dickinson), and in each case 7 ml of the aforementioned solution of the title compound are added and mixed therewith (Vortex® Genie 2 mixer from Merck). Then 1 drop of said antifoam is added and mixing is repeated. Thereafter 0.23 g of said hydrogen peroxide is added, and the tube is immediately made gas-tight with a stopper made of chemical-resistant elastic plastic (Viton® from Du Pont de Nemours), briefly (for a few seconds) ventilated with the aid of a hollow needle (Ø1 mm hypodermic needle) piercing the stopper and, immediately thereafter, closed gas-tight again by withdrawing the hollow needle from the stopper. The tube which has been closed gas-tight is left to stand at room temperature for 15 minutes. […] The pressure in the tube is then measured (cf. the description hereinafter of the preferred pressure gage). […]

[2] = system: catalase from Aspergillus niger / catalase from microorganisms (as active intracellular catalase); experiment: Catalase inactivation test: oxygen evolution from hydrogen peroxide measured as pressure in a closed tube, active intracellular catalase; type: biochemical, Aspergillus niger; various bacteria and/or fungi; details: 35 units of catalase from Aspergillus niger or from microorganisms in 1 ml sample, 7 ml solution of the title compound, 0.23 g hydrogen peroxide 30%, 15 minutes at room temperature
Text: as §1, §2

## CH2═CH—COO—SO2—O—C12H25
[1]
  catalase activity by oxygen evolution (pressure in the tube): the pressure in the tube does not increase
[2]
  catalase activity by oxygen evolution (pressure in the tube): the pressure in the tube increases
